The text below walks through data of PubChem BioAssay (NCI).

Some test systems named below: 786-0 renal; BT-549 breast; HCT-116 colon; MCF7 breast; OVCAR-4 ovarian; PC-3 prostate; SF-295 CNS; SK-MEL-2 melanoma; SK-MEL-5 melanoma; SNB-19 CNS.
Test in all cases: growth of human tumour cells (NCI), 48 h

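Test compounds were applied to cells in 96-well plates for 48 hours at 5 doses. TGI: total growth inhibition.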

On to `CC(C)(C)N=c1n(C(C)(C)C)oc(=O)n1C(C)(C)C`, for which the TGI with 786-0 renal, with BT-549 breast, in the assay with HCT-116 colon, in the assay with MCF7 breast, in the assay on OVCAR-4 ovarian and in the assay with PC-3 prostate was > 100 µM each time. For the same molecule, the TGI with SF-295 CNS, in the assay with SK-MEL-2 melanoma, in the assay with SK-MEL-5 melanoma and with SNB-19 CNS was > 100 µM in each case.

Take `COP(=O)(O)/C=C/C(NC(=O)C(Cl)(Cl)Cl)c1ccccc1` (stereo not given): the TGI in the assay on 786-0 renal, in the assay with BT-549 breast, in the assay with HCT-116 colon, in the assay on MCF7 breast, in the assay on OVCAR-4 ovarian and with PC-3 prostate was > 100 µM in each case. For the same molecule, the TGI with SF-295 CNS, in the assay on SK-MEL-2 melanoma, in the assay on SK-MEL-5 melanoma and with SNB-19 CNS was > 100 µM each time.

For the molecule `Cc1ccc(S(=O)(=O)Oc2cc(N)c3c(n2)CCC3)cc1`, the TGI in the assay on 786-0 renal, with BT-549 breast, in the assay with HCT-116 colon, with MCF7 breast, in the assay with OVCAR-4 ovarian and in the assay on PC-3 prostate was > 100 µM each time. In addition, the TGI in the assay on SF-295 CNS, in the assay with SK-MEL-2 melanoma, in the assay on SK-MEL-5 melanoma and with SNB-19 CNS was > 100 µM each time.

In the case of `O=C(O)[C@@H]1C[C@@H](O)CN1C(=O)OCc1ccccc1`, the TGI in the assay on 786-0 renal, with BT-549 breast, with HCT-116 colon, with MCF7 breast, in the assay on OVCAR-4 ovarian and with PC-3 prostate was > 100 µM each time. In addition, the TGI with SF-295 CNS, in the assay on SK-MEL-2 melanoma, in the assay on SK-MEL-5 melanoma and with SNB-19 CNS was > 100 µM each time.

`C=C1[C@@H](O)C[C@@]23CC[C@@H]4[C@@]5(C)CC[C@@H](OC(C)=O)C(C)(C)[C@@H]5C[C@@H](OC5OC(COC(C)=O)C(O)C(O)C5O)[C@@]4(C)C2=CC[C@H]3[C@H]1C` (stereo not given in full): the TGI in the assay with 786-0 renal was determined as 18.9 µM; with BT-549 breast, 21.4 µM; in the assay on HCT-116 colon it was 10.7 µM; in the assay with MCF7 breast, 7.77 µM; in the assay on OVCAR-4 ovarian, 21 µM; with PC-3 prostate, 13.9 µM. In addition, the TGI worked out at 14.8 µM with SF-295 CNS, 7.39 µM with SK-MEL-2 melanoma, 12.3 µM in the assay with SK-MEL-5 melanoma and 17.5 µM in the assay on SNB-19 CNS.

For `O=C(O)C1CC(c2ccc(F)cc2)=Nc2ccc(F)cc2S1` (stereo not given), the TGI in the assay with 786-0 renal, in the assay on BT-549 breast, in the assay on HCT-116 colon, in the assay on MCF7 breast, with OVCAR-4 ovarian and with PC-3 prostate was > 100 µM each time. The TGI in the assay with SF-295 CNS, in the assay with SK-MEL-2 melanoma, in the assay on SK-MEL-5 melanoma and in the assay on SNB-19 CNS was > 100 µM throughout.

Turning to `Nc1c2ccccc2nc2c1ccc1ncccc12`, the TGI was > 100 µM in the assay on 786-0 renal; > 100 µM in the assay on BT-549 breast; > 100 µM with HCT-116 colon; 72.1 µM in the assay with MCF7 breast; 63 µM with OVCAR-4 ovarian; > 100 µM in the assay on PC-3 prostate. In addition, the TGI was > 100 µM with SF-295 CNS, 42.1 µM with SK-MEL-2 melanoma, > 100 µM with SK-MEL-5 melanoma and > 100 µM in the assay with SNB-19 CNS.

Regarding `CC(C)(C)NC(=O)[C@H]1CC[C@H]2[C@@H]3CC=C4NC(=O)CC[C@]4(C)[C@H]3CC[C@]12C`, the TGI in the assay with 786-0 renal, with BT-549 breast, with HCT-116 colon, in the assay on MCF7 breast, in the assay on OVCAR-4 ovarian and with PC-3 prostate was > 100 µM each time. Also, the TGI with SF-295 CNS, with SK-MEL-2 melanoma, in the assay with SK-MEL-5 melanoma and with SNB-19 CNS was > 100 µM each time.

For the molecule `Nn1c(CCCCCCCCc2nnc(COc3c(O)ccc4ccccc34)n2N)nnc1COc1c(O)ccc2ccccc12`, the TGI in the assay with 786-0 renal, in the assay on BT-549 breast, with HCT-116 colon, in the assay with MCF7 breast, in the assay on OVCAR-4 ovarian and with PC-3 prostate was > 100 µM throughout. Also, the TGI in the assay on SF-295 CNS, with SK-MEL-2 melanoma, in the assay on SK-MEL-5 melanoma and in the assay on SNB-19 CNS was > 100 µM throughout.

For the molecule `O=c1c2ncn(C3CC(O)C(CO)O3)c2nnn1Cc1ccccc1[N+](=O)[O-]` (stereo not given), the TGI in the assay on 786-0 renal, in the assay on BT-549 breast, in the assay with HCT-116 colon, with MCF7 breast, in the assay on OVCAR-4 ovarian and in the assay on PC-3 prostate was > 100 µM each time. The TGI in the assay with SF-295 CNS, in the assay on SK-MEL-2 melanoma, in the assay with SK-MEL-5 melanoma and in the assay with SNB-19 CNS was > 100 µM throughout.

As to `COc1ccc(Nc2nc3ccc(C(F)(F)F)cc3nc2C(=O)O)cc1OC`, the TGI was > 100 µM in the assay with 786-0 renal; 71.5 µM in the assay on BT-549 breast; 80 µM in the assay with HCT-116 colon; > 100 µM with MCF7 breast; > 100 µM in the assay on OVCAR-4 ovarian; 94.6 µM in the assay on PC-3 prostate. In addition, the TGI with SF-295 CNS is 77.6 µM; in the assay with SK-MEL-2 melanoma, 35.5 µM; in the assay with SK-MEL-5 melanoma, 48.3 µM; in the assay with SNB-19 CNS, > 100 µM.

`Cc1ccc(S(=O)(=O)N2CCSCCSCCSCCSCC2)cc1`: the TGI with 786-0 renal is 40.2 µM; in the assay on BT-549 breast, 44 µM; in the assay with HCT-116 colon, > 100 µM; in the assay on MCF7 breast, > 100 µM; in the assay with OVCAR-4 ovarian, 64.2 µM; in the assay on PC-3 prostate, > 100 µM. In addition, the TGI with SF-295 CNS was 39.3 µM; with SK-MEL-2 melanoma it was > 53.6 µM; with SK-MEL-5 melanoma, > 86.9 µM; with SNB-19 CNS, 47.3 µM.

`NC(CSCc1ccccc1)C(=O)O` (stereo not given): the TGI in the assay on 786-0 renal, with BT-549 breast, with HCT-116 colon, in the assay on MCF7 breast, in the assay on OVCAR-4 ovarian and with PC-3 prostate was > 100 µM throughout. The TGI in the assay with SF-295 CNS, in the assay with SK-MEL-2 melanoma, with SK-MEL-5 melanoma and with SNB-19 CNS was > 100 µM in each case.

For the molecule `CCCCn1c2c(n(CCCC)c1=S)-c1c(n(CCCC)c(=S)n1CCCC)S[Se][Se]S2`, the TGI in the assay on 786-0 renal was > 43.9 µM; in the assay with BT-549 breast, 35.5 µM; in the assay on HCT-116 colon, 16.9 µM; in the assay on MCF7 breast, > 100 µM; in the assay on OVCAR-4 ovarian, > 37.4 µM; with PC-3 prostate, > 34.2 µM. For the same molecule, the TGI in the assay on SF-295 CNS is 30.5 µM; in the assay with SK-MEL-2 melanoma, > 55.6 µM; in the assay on SK-MEL-5 melanoma, 19.6 µM; in the assay with SNB-19 CNS it was > 76.4 µM.

With `O=C(CN1CCCCC1)CC(O)(C(F)(F)F)C(F)(F)F`, the TGI with 786-0 renal, with BT-549 breast, in the assay with HCT-116 colon, in the assay on MCF7 breast, in the assay on OVCAR-4 ovarian and in the assay on PC-3 prostate was > 100 µM throughout. Besides, the TGI in the assay with SF-295 CNS, with SK-MEL-2 melanoma, in the assay on SK-MEL-5 melanoma and with SNB-19 CNS was > 100 µM throughout.

Consider `COc1cc(OCc2ccc3oc(=O)c(-c4ccccc4)nc3c2)cc(OC)c1OC`, for which the TGI in the assay with 786-0 renal, with BT-549 breast, in the assay with HCT-116 colon, in the assay with MCF7 breast, with OVCAR-4 ovarian and in the assay with PC-3 prostate was > 100 µM throughout. The TGI with SF-295 CNS, in the assay with SK-MEL-2 melanoma, in the assay on SK-MEL-5 melanoma and in the assay with SNB-19 CNS was > 100 µM throughout.

With `C[n+]1c(-c2ccccc2)cc2/c(=C\c3ccc([N+](=O)[O-])cc3)c3ccccc3n21`, the TGI with 786-0 renal was 18.9 µM; in the assay with BT-549 breast, 1.67 µM; with HCT-116 colon, 14 µM; in the assay with MCF7 breast it was > 94.1 µM; in the assay with OVCAR-4 ovarian, > 100 µM; in the assay on PC-3 prostate it was 21.1 µM. For the same molecule, the TGI is 21.4 µM with SF-295 CNS, 10.9 µM with SK-MEL-2 melanoma, > 19.7 µM in the assay with SK-MEL-5 melanoma and > 36.1 µM in the assay on SNB-19 CNS.

With `Cc1ccccc1OC(C)C(=O)NN1C(=O)CC(=O)N(c2ccc(Cl)cc2)C1=S` (stereo not given), the TGI with 786-0 renal is > 100 µM; with BT-549 breast, > 100 µM; in the assay on HCT-116 colon, 53 µM; in the assay with MCF7 breast, > 100 µM; in the assay with OVCAR-4 ovarian, > 100 µM; with PC-3 prostate, > 100 µM. Also, the TGI was > 100 µM in the assay on SF-295 CNS, > 100 µM with SK-MEL-2 melanoma, 74.4 µM with SK-MEL-5 melanoma and > 100 µM in the assay on SNB-19 CNS.
